Format in all cases: in vivo, human
The test system of assay [1] is people who had any unpleasant symptom before menstruation. Put plainly: Combined administration test of γ-tocopherol and equol, MDQ questionnaire. The following applies: suggested by the results of Test Example 1 and Test Example 2; equol alone not administered.
The subject of assay [2] is people who had fluid retention before menstruation. The assay is described as follows: Administration test of γ-tocopherol alone, MDQ questionnaire. The conditions noted are these: 360 mg/day γ-tocopherol, 7 days, 25 people. The procedure:
(§1) Twenty-five people who had fluid retention before menstruation were subjected to randomly-assigned placebo-controlled double-blind tested group comparative study. […] An evaluation period is between the morning of the 6th day after the start of the continuous ingestion and the morning of the 8th day […]. Evaluation by questionnaires was conducted before every meal. An average value of variations from a start value of the evaluation was obtained to compare the tested group with the placebo group.
(§2) The evaluation by questionnaires was conducted by VAS (visual analog scale) and MDQ (menstrual distress questionnaire).
(§3) For VAS, the subjects indicated their symptoms about each questionnaire on a scale of “0 mm” (no symptom) to “100 mm” (the symptom is very strong/the symptom affects daily living), and an average value of variations from a start value of the evaluation was calculated. For MDQ, the subjects answered each questionnaire on a six-point scale of “0” (no symptom) to “5” (the symptom is very strong/the symptom affects daily living).

The test system is the same in assay [3]. Put plainly: Administration test of γ-tocopherol alone, VAS questionnaire. The conditions noted are these: 360 mg/day γ-tocopherol, 7 days, 25 people, placebo-controlled double-blind. The method, then:
as §1, §2, §3

For `Oc1ccc(C2COc3cc(O)ccc3C2)cc1` (centres unmarked) [equol], in assay [1], the “effects of equol alone on "pain", "negative emotion", "concentration ability" and "change in behavior"” value is on record as “has effects”.
`Cc1c(O)cc2c(c1C)O[C@](C)(CCC[C@H](C)CCC[C@H](C)CCCC(C)C)CC2` [γ-tocopherol]: in assay [2], the “proportion of people who had decreased MDQ scores as compared with the placebo group, "change in behavior"” value was determined as 32.0%; the “proportion of people who had decreased MDQ scores as compared with the placebo group, item "concentration ability"” value is given as 36.0%; the “proportion of people who had decreased MDQ scores as compared with the placebo group, item "fluid retention"” value is 56.0%; the “proportion of people who had decreased MDQ scores as compared with the placebo group, item "negative emotion"” value turned out to be 28.0%. Also, the “proportion of people who had decreased MDQ scores as compared with the placebo group, item "pain"” value in assay [2] is listed as 44.0%. Moreover, in assay [3], the “VAS "annoyance or irritability" (mental unpleasant symptoms) as compared with a placebo group” value was “significant amelioration” and the “VAS leg swelling (physical unpleasant symptoms) as compared with a placebo group” value is “significant amelioration”.

(Values after patent US20210361616A1, “AMELIORATING AGENT FOR FEMALE-SPECIFIC PHYSICAL AND/OR MENTAL UNPLEASANT SYMPTOM” (OTSUKA PHARMACEUTICAL CO., LTD., priority 2016, published 2021).)
